{"source": "paper PMC3886901", "about": "“Vestigialization of an Allosteric Switch: Genetic and Structural Mechanisms for the Evolution of Constitutive Activity in a Steroid Hormone Receptor” (PLoS Genetics, 2014)", "test_system": "T1, AncLophoSR (ancestral lophotrochozoan steroid receptor, ML reconstruction; GenBank KC261633)", "T1 construct": "resurrected LBD with the hinge domain and C-terminus of CgER, Gal4-DBD fusion", "assay": "Gal4-DBD fusion dual luciferase reporter assay in transfected CHO-K1 cells", "type": "cell-based, synthetic construct", "data": [{"smiles": "C[C@]12CC[C@@H]3c4ccc(O)cc4CC[C@H]3[C@@H]1CC[C@@H]2O", "note": "[17β-estradiol]", "values": [{"measurement": "EC50", "result": 12, "unit": "nM"}]}]}
